{"source": "PubChem BioAssay AID2060895", "about": "(Molecular Pharmacology Branch, DTP, NCI, 2025)", "tested_on": "PDC 899932-113-R3-J6 complex spheroid viability", "experiment": "Anticancer human tumor 899932-113-R3-J6-PDC patient-derived melanoma cell line growth inhibition [RAS]", "conditions": "for viability, T/C: stronger effect = lower value", "outline": "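Multi-cell-type spheroids: tumor cells plus HUVEC endothelial cells and mesenchymal stem cells. RAS-pathway inhibitors were combined with targeted agents, each dosed in half-log steps down from clinical Cmax, or from 10 microM when Cmax was unknown.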", "note": "Where “and” joins values, the source holds several entries; their conditions need not be identical. Identical values can stand only once.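 Throughout, for viability, T/C: spheroids exposed to agents for seven days before readout; 100% = DMSO vehicle control wells.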"}
{"smiles": "C=CC(=O)Nc1cc(Nc2nccc(-c3cn(C)c4ccccc34)n2)c(OC)cc1N(C)CCN(C)C", "values": [{"measurement": "viability, T/C", "setting": "compound 0.00316 µM", "result": "109% [middle of 4 runs]"}, {"measurement": "viability, T/C", "setting": "compound 0.01 µM", "result": "98.4% [middle of 4 runs]"}, {"measurement": "viability, T/C", "setting": "compound 0.0316 µM", "result": "101% [middle of 4 runs]"}, {"measurement": "viability, T/C", "setting": "compound 0.1 µM", "result": "104% and 102% (2×) and 101%"}, {"measurement": "viability, T/C", "setting": "compound 0.316 µM", "result": "106% [middle of 4 runs]"}, {"measurement": "viability, T/C", "setting": "compound 1 µM", "result": "100% [middle of 4 runs]"}, {"measurement": "IC50", "setting": "curve of compound", "result": "> 1000", "unit": "nM"}]}
{"smiles": "C=CC(=O)Nc1cc(Nc2nccc(-c3cn(C)c4ccccc34)n2)c(OC)cc1N(C)CCN(C)C", "note": "+ CCn1c(-c2cccnc2C(C)OC)c2c3cc(ccc31)N1CCOC(CC(NC(=O)C(C(C)C)N(C)C(=O)C3(F)CCN(C(=O)C#CC(C)(C)N(C)C)CC3)C(=O)N3CCCC(N3)C(=O)OCC(C)(C)C2)C1", "values": [{"measurement": "IC50", "setting": "curve of first compound, second compound 0.000949 µM", "result": "> 1000", "unit": "nM"}, {"measurement": "IC50", "setting": "curve of first compound, second compound 0.003 µM", "result": "> 1000", "unit": "nM"}, {"measurement": "IC50", "setting": "curve of first compound, second compound 0.00949 µM", "result": "> 1000", "unit": "nM"}, {"measurement": "IC50", "setting": "curve of first compound, second compound 0.03 µM", "result": "> 1000", "unit": "nM"}, {"measurement": "IC50", "setting": "curve of first compound, second compound 0.0949 µM", "result": "> 1000", "unit": "nM"}, {"measurement": "IC50", "setting": "curve of first compound, second compound 0.3 µM", "result": "> 1000", "unit": "nM"}, {"measurement": "viability, T/C", "setting": "second compound 0.000949 µM, first compound 0.00316 µM", "result": 113, "unit": "%"}, {"measurement": "viability, T/C", "setting": "second compound 0.000949 µM, first compound 0.01 µM", "result": 98.3, "unit": "%"}, {"measurement": "viability, T/C", "setting": "second compound 0.000949 µM, first compound 0.0316 µM", "result": 101, "unit": "%"}, {"measurement": "viability, T/C", "setting": "second compound 0.000949 µM, first compound 0.1 µM", "result": 106, "unit": "%"}, {"measurement": "viability, T/C", "setting": "second compound 0.000949 µM, first compound 0.316 µM", "result": 115, "unit": "%"}, {"measurement": "viability, T/C", "setting": "second compound 0.000949 µM, first compound 1 µM", "result": 102, "unit": "%"}, {"measurement": "viability, T/C", "setting": "second compound 0.003 µM, first compound 0.00316 µM", "result": 104, "unit": "%"}, {"measurement": "viability, T/C", "setting": "second compound 0.003 µM, first compound 0.01 µM", "result": 116, "unit": "%"}, {"measurement": "viability, T/C", "setting": "second compound 0.003 µM, first compound 0.0316 µM", "result": 107, "unit": "%"}, {"measurement": "viability, T/C", "setting": "second compound 0.003 µM, first compound 0.1 µM", "result": 104, "unit": "%"}, {"measurement": "viability, T/C", "setting": "second compound 0.003 µM, first compound 0.316 µM", "result": 112, "unit": "%"}, {"measurement": "viability, T/C", "setting": "second compound 0.003 µM, first compound 1 µM", "result": 99.5, "unit": "%"}, {"measurement": "viability, T/C", "setting": "second compound 0.00949 µM, first compound 0.00316 µM", "result": 108, "unit": "%"}, {"measurement": "viability, T/C", "setting": "second compound 0.00949 µM, first compound 0.01 µM", "result": 102, "unit": "%"}, {"measurement": "viability, T/C", "setting": "second compound 0.00949 µM, first compound 0.0316 µM", "result": 108, "unit": "%"}, {"measurement": "viability, T/C", "setting": "second compound 0.00949 µM, first compound 0.1 µM", "result": 101, "unit": "%"}, {"measurement": "viability, T/C", "setting": "second compound 0.00949 µM, first compound 0.316 µM", "result": 110, "unit": "%"}, {"measurement": "viability, T/C", "setting": "second compound 0.00949 µM, first compound 1 µM", "result": 95.1, "unit": "%"}, {"measurement": "viability, T/C", "setting": "second compound 0.03 µM, first compound 0.00316 µM", "result": 104, "unit": "%"}, {"measurement": "viability, T/C", "setting": "second compound 0.03 µM, first compound 0.01 µM", "result": 102, "unit": "%"}, {"measurement": "viability, T/C", "setting": "second compound 0.03 µM, first compound 0.0316 µM", "result": 101, "unit": "%"}, {"measurement": "viability, T/C", "setting": "second compound 0.03 µM, first compound 0.1 µM", "result": 112, "unit": "%"}, {"measurement": "viability, T/C", "setting": "second compound 0.03 µM, first compound 0.316 µM", "result": 112, "unit": "%"}, {"measurement": "viability, T/C", "setting": "second compound 0.03 µM, first compound 1 µM", "result": 100, "unit": "%"}, {"measurement": "viability, T/C", "setting": "second compound 0.0949 µM, first compound 0.00316 µM", "result": 102, "unit": "%"}, {"measurement": "viability, T/C", "setting": "second compound 0.0949 µM, first compound 0.01 µM", "result": 99.1, "unit": "%"}, {"measurement": "viability, T/C", "setting": "second compound 0.0949 µM, first compound 0.0316 µM", "result": 103, "unit": "%"}, {"measurement": "viability, T/C", "setting": "second compound 0.0949 µM, first compound 0.1 µM", "result": 105, "unit": "%"}, {"measurement": "viability, T/C", "setting": "second compound 0.0949 µM, first compound 0.316 µM", "result": 104, "unit": "%"}, {"measurement": "viability, T/C", "setting": "second compound 0.0949 µM, first compound 1 µM", "result": 89.8, "unit": "%"}, {"measurement": "viability, T/C", "setting": "second compound 0.3 µM, first compound 0.00316 µM", "result": 96.5, "unit": "%"}, {"measurement": "viability, T/C", "setting": "second compound 0.3 µM, first compound 0.01 µM", "result": 85.5, "unit": "%"}, {"measurement": "viability, T/C", "setting": "second compound 0.3 µM, first compound 0.0316 µM", "result": 96, "unit": "%"}, {"measurement": "viability, T/C", "setting": "second compound 0.3 µM, first compound 0.1 µM", "result": 92.3, "unit": "%"}, {"measurement": "viability, T/C", "setting": "second compound 0.3 µM, first compound 0.316 µM", "result": 90.9, "unit": "%"}, {"measurement": "viability, T/C", "setting": "second compound 0.3 µM, first compound 1 µM", "result": 85.8, "unit": "%"}]}
